{"source": "ChEMBL document CHEMBL1799909", "about": "“Lithothamnin A, the first bastadin-like metabolite from the red alga Lithothamnion fragilissimum” (J Nat Prod, 2011)", "assay_type_in_all_cases": "functional, cell-based", "key": {"SNB-19": {"system": "SNB-19", "experiment": "Cytotoxicity against human SNB19 cells after 2 days by XTT assay", "settings": "SNB-19, 48 h"}, "[1]": {"experiment": "Cytotoxicity against human LOX cells after 2 days by XTT assay", "settings": "48 h"}, "OVCAR-3": {"system": "OVCAR-3", "experiment": "Cytotoxicity against human OVCAR3 cells after 2 days by XTT assay", "settings": "OVCAR-3, 48 h"}, "COLO 205": {"system": "COLO 205", "experiment": "Cytotoxicity against human COLO205 cells after 2 days by XTT assay", "settings": "COLO 205, 48 h"}, "MOLT-4": {"system": "MOLT-4", "experiment": "Cytotoxicity against human MOLT4 cells after 2 days by XTT assay", "settings": "MOLT-4, 48 h"}}, "data": [{"smiles": "O=C1NCCc2cc(Br)c(O)c(c2)Oc2cc(O)c(cc2Br)CCNC(=O)/C(=N/O)Cc2c(O)cc(Br)c(c2Br)Oc2cc(cc(Br)c2O)C/C1=N\\O", "note": "[LITHOTHAMNIN A]", "values": [{"measurement": "IC50", "setting": "SNB-19", "value": 7.6, "unit": "µM"}, {"measurement": "IC50", "setting": "[1]", "value": 9.5, "unit": "µM"}, {"measurement": "IC50", "setting": "OVCAR-3", "value": 7.6, "unit": "µM"}, {"measurement": "IC50", "setting": "COLO 205", "value": 19, "unit": "µM"}, {"measurement": "IC50", "setting": "MOLT-4", "value": 19, "unit": "µM"}]}]}
